Experimental data reported in patent US20200093103A1, “BREEDING WATER FOR ANGUILLIFORMES AND METHOD FOR REARING ANGUILLIFORMES” (SHIN NIPPON BIOMEDICAL LABORATORIES, LTD., priority 2016, published 2020).

System: Anguilla japonica leptocephali
Test: Induction of Anguilla japonica metamorphosis by T4 treatment in 23° C. breeding water
Assay type: in vivo
Design: key: L: During life, no characteristics of metamorphosis seen.; Stage 1: Starting phase of metamorphosis. The rostral end is rounded, and intestinal degeneration starts.; Stage 2: Peak phase of metamorphosis. Intestinal degeneration becomes pronounced.; Stage 3: Late phase of metamorphosis.; Stage 4: Pre-glass eel stage. Almost the eel form, but the body height still remains
From the text: Stage 1: Starting phase of metamorphosis. The rostral end is rounded, and intestinal degeneration starts.
Stage 2: Peak phase of metamorphosis. Intestinal degeneration becomes pronounced. In the second half, the anus reaches to near the last vertical blood vessel (VBV last).
Stage 3: Late phase of metamorphosis. The preanal length (PAL) becomes equal to or shorter than the last vertical blood vessel length (VBV last Length) (PAL VBV last Length). The body height is apparently low.
Stage 4: Pre-glass eel stage. Almost the eel form, but the body height still remains. Melanophores on the body surface or endogenous melanophores are not yet seen.
Elver stage: Juvenile stage. Food intake can be identified.
A thyroid hormone (e.g., thyroxine (T4)) is adjusted to 50 to 100 mM in a 1- to 2-mL volume messflask. As a solvent, known solvents (water, alcohol) can be used. Ethanol is preferably used as the solvent.
For example, using ethanol as a solvent, T4 adjusted to 50 mM is diluted 500-fold, 5,000-fold, and 50,000-fold, respectively, and adjusted to […], 1 μM, and 100 nM. A feed can be prepared in this manner.
Artificial seawater is added to a breeding vessel, and 1/1000 of the […] T4 is added to prepare […] T4 breeding water.
Half of the breeding water is replaced every two days with breeding water of the same concentration. In the case where the concentration is changed, for example, in the case of changing from 10 nM to 2 nM, 80% to the breeding water is removed, and unadjusted artificial seawater is newly added to make 1 L.
Leptocephali visually considered to have reached a total length of 40 mm (or may be 30 mm to 50 mm, may be 35 mm to 45 mm, or may also be 35 mm or more, 40 mm or more, or 45 mm or more) are selected, anesthetized with 2-phenoxyethanol, and then photographed, and the total length of each larva is measured using an image analyzing device.
The larvae are placed in 10 nM T4 breeding water and then placed in an incubator set at 23° C., and breeding is started. In first one week, observation is performed every two days, and half of the 10 nM T4 breeding water is replaced each time. The average amount of thyroid hormone in the breeding water in stage 1 is 1 nM to 100 nM, for example, and may also be 3 nM to 30 nM, or 5 nM to 20 nM.
For larvae visually judged to have reached the second half of stage 2, the concentration of the breeding water is changed. The breeding water is diluted 5-fold or 10-fold and adjusted to 2 nM or 1 nM T4, and breeding is continued. The average amount of thyroid hormone in the breeding water in stage 2 may be, as compared with the breeding water of stage 1, diluted 2-fold to 20-fold, diluted 3 to 15-fold, or diluted 5 to 10-fold as described above. The average amount of thyroid hormone in the breeding water in stage 2 is 0.1 nM to 20 nM, for example, and may also be 0.5 nM to 10 nM, 1 nM to 5 nM, or 1 nM to 2 nM.
For larvae visually judged to have reached stage 3, the breeding water is quickly changed 0.2 nM T4 breeding water, which is a 5-fold dilution of 1 nM T4 breeding water, and further changed to 0.1 nM T4 breeding water on the following day. […] Also, in larvae whose anus position has not reached the last vertical hemal spine, when they are judged to be on the brink of stage 3, the concentration is changed as above. The average amount of thyroid hormone in the breeding water in stage 3 may be, as compared with the breeding water of stage 2, diluted 2-fold to 50-fold, diluted 3 to 15-fold, diluted 4 to 6-fold, or diluted 5-fold as described above. The average amount of thyroid hormone in the breeding water in stage 3 is 0.01 nM to 2 nM, for example, and may also be 0.05 nM to 1 nM, 0.1 nM to 0.5 nM, or 0.1 nM to 0.2 nM. […] That is, the concentration may be changed such that the thyroid hormone becomes undetectable in the breeding water in the course of stage 3.
In stage 3, breeding is continuously performed in the 0.1 nM T4 breeding water. […]

With `N[C@@H](Cc1cc(I)c(Oc2cc(I)c(O)c(I)c2)c(I)c1)C(=O)O` [T4, thyroxine] the metamorphosis stage (individual Exp 5-5, 174 days old, total length 36.1 mm at start, c3 onward = treatment days 1,3,5,7,8,9,10,11,12,13,14,15,16,17, T4 (nM) 10,10,10,10,10,10,10,2,0.2,0.1,0.1,0.1,0.1,0.1, treatment day 16, T4 0.1 nM) was 3, the metamorphosis stage (individual Exp 5-5, 174 days old, total length 36.1 mm at start, c3 onward = treatment days 1,3,5,7,8,9,10,11,12,13,14,15,16,17, T4 (nM) 10,10,10,10,10,10,10,2,0.2,0.1,0.1,0.1,0.1,0.1, treatment day 17, T4 0.1 nM) was 4 and the metamorphosis stage (individual Exp 6-2, 129 days old, total length 38.1 mm at start, c3 onward = treatment days 1,3,5,7,9,10,11,12,13,14,15,16,17,18, T4 (nM) 10,10,10,10,10,2,0.2,0.1,0.1,0.1,0.1,0.1,0.1,0.1) was 3. The metamorphosis stage (individual Exp. 5-1, 175 days old, total length 38.5 mm at start, c3 onward = treatment days 1,3,5,7,8,9,10,11,12,13,14,15,16,17,18, T4 (nM) 10,10,10,10,2,1,0.2,0.1,0.1,0.1,0.1,0.1, treatment day 1, T4 10 nM) was “L”, the metamorphosis stage (individual Exp. 5-1, 175 days old, total length 38.5 mm at start, c3 onward = treatment days 1,3,5,7,8,9,10,11,12,13,14,15,16,17,18, T4 (nM) 10,10,10,10,2,1,0.2,0.1,0.1,0.1,0.1,0.1, treatment day 3, T4 10 nM) was “L” and the metamorphosis stage (individual Exp. 5-1, 175 days old, total length 38.5 mm at start, c3 onward = treatment days 1,3,5,7,8,9,10,11,12,13,14,15,16,17,18, T4 (nM) 10,10,10,10,2,1,0.2,0.1,0.1,0.1,0.1,0.1, treatment day 5, T4 10 nM) was 1. The metamorphosis stage (individual Exp. 5-1, 175 days old, total length 38.5 mm at start, c3 onward = treatment days 1,3,5,7,8,9,10,11,12,13,14,15,16,17,18, T4 (nM) 10,10,10,10,2,1,0.2,0.1,0.1,0.1,0.1,0.1, treatment day 7, T4 10 nM) was 2, the metamorphosis stage (individual Exp. 5-1, 175 days old, total length 38.5 mm at start, c3 onward = treatment days 1,3,5,7,8,9,10,11,12,13,14,15,16,17,18, T4 (nM) 10,10,10,10,2,1,0.2,0.1,0.1,0.1,0.1,0.1, treatment day 8, T4 2 nM) was 2 and the metamorphosis stage (individual Exp. 5-1, 175 days old, total length 38.5 mm at start, c3 onward = treatment days 1,3,5,7,8,9,10,11,12,13,14,15,16,17,18, T4 (nM) 10,10,10,10,2,1,0.2,0.1,0.1,0.1,0.1,0.1, treatment day 9, T4 1 nM) was 2. It also gave a metamorphosis stage (individual Exp. 5-1, 175 days old, total length 38.5 mm at start, c3 onward = treatment days 1,3,5,7,8,9,10,11,12,13,14,15,16,17,18, T4 (nM) 10,10,10,10,2,1,0.2,0.1,0.1,0.1,0.1,0.1, treatment day 10, T4 0.2 nM) of 3, a metamorphosis stage (individual Exp. 5-1, 175 days old, total length 38.5 mm at start, c3 onward = treatment days 1,3,5,7,8,9,10,11,12,13,14,15,16,17,18, T4 (nM) 10,10,10,10,2,1,0.2,0.1,0.1,0.1,0.1,0.1, treatment day 11, T4 0.1 nM) of 3 and a metamorphosis stage (individual Exp. 5-1, 175 days old, total length 38.5 mm at start, c3 onward = treatment days 1,3,5,7,8,9,10,11,12,13,14,15,16,17,18, T4 (nM) 10,10,10,10,2,1,0.2,0.1,0.1,0.1,0.1,0.1, treatment day 12, T4 0.1 nM) of 3. It also gave a metamorphosis stage (individual Exp. 5-1, 175 days old, total length 38.5 mm at start, c3 onward = treatment days 1,3,5,7,8,9,10,11,12,13,14,15,16,17,18, T4 (nM) 10,10,10,10,2,1,0.2,0.1,0.1,0.1,0.1,0.1, treatment day 13, T4 0.1 nM) of 3, a metamorphosis stage (individual Exp. 5-1, 175 days old, total length 38.5 mm at start, c3 onward = treatment days 1,3,5,7,8,9,10,11,12,13,14,15,16,17,18, T4 (nM) 10,10,10,10,2,1,0.2,0.1,0.1,0.1,0.1,0.1, treatment day 14, T4 0.1 nM) of 3 and a metamorphosis stage (individual Exp. 5-1, 175 days old, total length 38.5 mm at start, c3 onward = treatment days 1,3,5,7,8,9,10,11,12,13,14,15,16,17,18, T4 (nM) 10,10,10,10,2,1,0.2,0.1,0.1,0.1,0.1,0.1, treatment day 15, T4 0.1 nM) of 4. For the same compound, the metamorphosis stage (individual Exp. 5-2, 175 days old, total length 41.3 mm at start, c3 onward = treatment days 1,3,5,7,8,9,10,11,12,13,14,15,16,17,18, T4 (nM) 10,10,10,10,2,1,0.2,0.1,0.1,0.1,0.1,0.1, treatment day 1, T4 10 nM) was “L”, the metamorphosis stage (individual Exp. 5-2, 175 days old, total length 41.3 mm at start, c3 onward = treatment days 1,3,5,7,8,9,10,11,12,13,14,15,16,17,18, T4 (nM) 10,10,10,10,2,1,0.2,0.1,0.1,0.1,0.1,0.1, treatment day 3, T4 10 nM) was “L” and the metamorphosis stage (individual Exp. 5-2, 175 days old, total length 41.3 mm at start, c3 onward = treatment days 1,3,5,7,8,9,10,11,12,13,14,15,16,17,18, T4 (nM) 10,10,10,10,2,1,0.2,0.1,0.1,0.1,0.1,0.1, treatment day 5, T4 10 nM) was 2. For the same compound, the metamorphosis stage (individual Exp. 5-2, 175 days old, total length 41.3 mm at start, c3 onward = treatment days 1,3,5,7,8,9,10,11,12,13,14,15,16,17,18, T4 (nM) 10,10,10,10,2,1,0.2,0.1,0.1,0.1,0.1,0.1, treatment day 7, T4 10 nM) was 2, the metamorphosis stage (individual Exp. 5-2, 175 days old, total length 41.3 mm at start, c3 onward = treatment days 1,3,5,7,8,9,10,11,12,13,14,15,16,17,18, T4 (nM) 10,10,10,10,2,1,0.2,0.1,0.1,0.1,0.1,0.1, treatment day 8, T4 2 nM) was 2 and the metamorphosis stage (individual Exp. 5-2, 175 days old, total length 41.3 mm at start, c3 onward = treatment days 1,3,5,7,8,9,10,11,12,13,14,15,16,17,18, T4 (nM) 10,10,10,10,2,1,0.2,0.1,0.1,0.1,0.1,0.1, treatment day 9, T4 1 nM) was 2. The metamorphosis stage (individual Exp. 5-2, 175 days old, total length 41.3 mm at start, c3 onward = treatment days 1,3,5,7,8,9,10,11,12,13,14,15,16,17,18, T4 (nM) 10,10,10,10,2,1,0.2,0.1,0.1,0.1,0.1,0.1, treatment day 10, T4 0.2 nM) was 3, the metamorphosis stage (individual Exp. 5-2, 175 days old, total length 41.3 mm at start, c3 onward = treatment days 1,3,5,7,8,9,10,11,12,13,14,15,16,17,18, T4 (nM) 10,10,10,10,2,1,0.2,0.1,0.1,0.1,0.1,0.1, treatment day 11, T4 0.1 nM) was 3 and the metamorphosis stage (individual Exp. 5-2, 175 days old, total length 41.3 mm at start, c3 onward = treatment days 1,3,5,7,8,9,10,11,12,13,14,15,16,17,18, T4 (nM) 10,10,10,10,2,1,0.2,0.1,0.1,0.1,0.1,0.1, treatment day 12, T4 0.1 nM) was 3. For the same compound, the metamorphosis stage (individual Exp. 5-2, 175 days old, total length 41.3 mm at start, c3 onward = treatment days 1,3,5,7,8,9,10,11,12,13,14,15,16,17,18, T4 (nM) 10,10,10,10,2,1,0.2,0.1,0.1,0.1,0.1,0.1, treatment day 13, T4 0.1 nM) was 3.
